Experimental data taken from BigSolDB 2.1.

O=C(O)CCCc1c[nH]c2ccccc12
solubility (mole fraction)
Conditions | 283.15 K | 288.15 K | 293.15 K | 298.15 K | 303.15 K | 308.15 K | 313.15 K | 318.15 K | 323.15 K
in 2-butanone | 0.123 | 0.139 | 0.152 | 0.168 | 0.185 | 0.198 | 0.218 | 0.24 | 0.264
in acetone | 0.22 | 0.24 | 0.257 | 0.274 | 0.291 | 0.315 | 0.339 | 0.365 | 0.399
in acetonitrile | 0.0411 | 0.0531 | 0.0654 | 0.0814 | 0.104 | 0.123 | 0.155 | 0.192 | 0.256
in dimethyl carbonate | 0.0194 | 0.022 | 0.0287 | 0.0354 | 0.0453 | 0.0535 | 0.0644 | 0.0827 | 0.101
in ethanol | 0.048 | 0.0557 | 0.0642 | 0.0753 | 0.0886 | 0.1 | 0.116 | 0.141 | 0.171
in ethyl acetate | 0.049 | 0.0582 | 0.0689 | 0.0808 | 0.0914 | 0.103 | 0.122 | 0.145 | 0.17
in ethyl lactate | 0.101 | 0.106 | 0.117 | 0.128 | 0.14 | 0.151 | 0.165 | 0.19 | 0.22
in isobutanol | 0.0213 | 0.0253 | 0.0315 | 0.0379 | 0.0477 | 0.0581 | 0.0697 | 0.0857 | 0.102
in isobutyl acetate | 0.0355 | 0.0429 | 0.0498 | 0.0572 | 0.0649 | 0.0736 | 0.0848 | 0.0958 | 0.11
in isopentanol | 0.0309 | 0.0348 | 0.0412 | 0.0505 | 0.0601 | 0.0725 | 0.0858 | 0.0985 | 0.116
in isopropanol | 0.0406 | 0.0494 | 0.0599 | 0.0724 | 0.0859 | 0.0984 | 0.112 | 0.128 | 0.143
in isopropyl acetate | 0.0492 | 0.0628 | 0.0711 | 0.0813 | 0.0905 | 0.101 | 0.11 | 0.124 | 0.149
in methanol | 0.0481 | 0.0562 | 0.0656 | 0.0777 | 0.0922 | 0.104 | 0.123 | 0.153 | 0.181
in methyl acetate | 0.0573 | 0.0623 | 0.0701 | 0.0812 | 0.0909 | 0.106 | 0.126 | 0.154 | 0.19
in n-butanol | 0.0362 | 0.0422 | 0.0495 | 0.0582 | 0.0688 | 0.0786 | 0.0961 | 0.112 | 0.134
in n-butyl acetate | 0.0582 | 0.0645 | 0.0726 | 0.0797 | 0.0885 | 0.0977 | 0.112 | 0.129 | 0.141
in n-pentanol | 0.0362 | 0.0408 | 0.0486 | 0.058 | 0.0674 | 0.0764 | 0.0929 | 0.108 | 0.124
in n-propanol | 0.0385 | 0.0446 | 0.0534 | 0.0605 | 0.0727 | 0.0863 | 0.0994 | 0.112 | 0.139
in sec-butanol | 0.0417 | 0.0486 | 0.0582 | 0.0692 | 0.0829 | 0.0964 | 0.111 | 0.13 | 0.163
